# Assay results from patent US20030037354A1, “Animal model with disrupted Fgf14 gene” (priority 2001, published 2003).
# Where two headings read alike, the source gives them in different places.
# How the values were obtained:
# [1] = tested on: wildtype and FGF14 deficient mice; assay: PTZ-induced seizure: latency to onset and time to death; type: in vivo, mouse; settings: for time to death (mean duration): FGF14 (−/−) mice
# Procedure: Time to onset of tonic-clonic seizure was recorded. In the first experiment (FIG. 9), the mean age was 82 days and the sex ratio was 50% male/female. In the second experiment, the mean age was 354 days and all animals were female.
# [2] = tested on: wildtype and Fgf14^N-βGal/N-βGal mice; assay: Locomotor activity response to stimulant drugs and dopamine receptor agonists; type: in vivo, mouse
# Procedure: Locomotor activity. For the locomotor activity experiments, all mice were acclimated to the activity cages (28 cm long×17 cm wide×12.5 cm high) for one hour on two consecutive days. […] Mice were tested every other day and the order of drug treatment was counterbalanced across days within genotype groups. Locomotor activity was recorded every five minutes by two beams of red light placed at 10 and 19 cm along the length of the activity cage.
# Statistical Analyses. The behavioral data were analyzed using analysis of variance (ANOVA) models typically containing one between-subjects variable (Genotype) and one within-subjects variable (e.g., Trials or Test Sessions). Subsequent one-way ANOVAs were used to evaluate main effects. Data from the experiments concerning drug effects on locomotor activity were analyzed by using a […] analysis of variance (ANOVA) with one between-subjects variable (Drug) being added to the above model. […] Alpha was set at p<0.05 for all analyses.
# [3] = tested on: Dopamine D1 receptor deficient mice; settings: cited from earlier work
# [4] = tested on: extracellular dopamine; settings: cited from earlier work
# [5] = tested on: wildtype and Fgf14^N-βGal/N-βGal mice; assay: Cocaine-induced seizure activity with EEG recording; type: in vivo, mouse
# Procedure: Surgical implantation of skull screw electrodes was performed with the mice positioned in a stereotaxic frame under halothane anesthesia. Using sterile technique, the scalp was incised at the midline and the periosteum was scraped free from the skull. Three burr holes were made with a high speed drill for placement of epidural screw electrodes. Two active electrodes were placed over the right and left frontal cortex approximately 1 mm posterior to the bregma. A reference electrode was implanted in the region over the frontal sinus. The electrodes and lead wires were stabilized to the skull with dental cement. The mice were allowed a three-day recovery period before recording. Reference EEG recordings from the right and left frontal regions were performed using a Grass P5 Series AC amplifier with high and low frequency filter settings at 100 and 1 Hz, respectively. The outputs of the amplifiers were digitized and stored using an analog-to-digital converter and Axoscope software.
# [6] = Fgf14^N-βGal/N-βGal mice, 40 mg/kg
structure (smiles),measurement,setting,value
"C1CCc2nnnn2CC1 [PTZ, pentylenetetrazol]",time to death (mean duration),"[1]; Experiment 1, 100 mg/kg IP, average age 82 days",about 4200 seconds
same,time to death (mean duration),"[1]; Experiment 2, 75 mg/kg IP, average age 354 days",~5700 s
same,time to death after seizure onset,[1]; wild type mice,15 to 20 s
Oc1cc2c(cc1O)C(c1ccccc1)CNCC2 (stereo not shown) [SKF38393],reduction in the locomotor activity induced by the D1R agonist,[2]; Fgf14^N-βGal/N-βGal mice compared to wildtype,30%
CC(N)Cc1ccccc1 (stereo not shown) [amphetamine],locomotor response,[3]; 2 mg/kg,non-responsive
same,locomotor response,[3]; 5 mg/kg,decreased response
same,hyperactivity response relative to wildtype littermates,"[2]; Fgf14^N-βGal/N-βGal mice, 2 and 4 mg/kg subcutaneous",significantly lower
same,elevation of DA efflux above baseline,[4]; 2 mg/kg,350%
same,elevation of DA efflux above baseline,[4]; 4 mg/kg,750%
COC(=O)[C@H]1[C@@H](OC(=O)c2ccccc2)C[C@@H]2CC[C@H]1N2C [cocaine],EEG recording,[5]; [6],epileptiform activity
same,induction of seizures (behaviour),[5]; [6],brief tonic movements
same,induction of seizures,"[5]; both wildtype and FGF14 deficient mice, 80 mg/kg",tonic-clonic seizures
same,induction of seizures,"[5]; wildtype mice, 40 mg/kg",did not induce seizures
